Experimental data published in article PMC7377239, “Cardiovascular Effects of Polychlorinated Biphenyls and Their Major Metabolites” (Environmental Health Perspectives, 2020).
Counter-ions that a name gives are not always drawn.

Experiments:
[1] = system: iPSC-CMs, iPSC-ECs and HUVECs phenotypes; assay: ToxPi 2.0 integration of POD values and physicochemical descriptors; design: species or system human; conditions: ToxPi-scaled (0-1) score; for huvec.cyto.24hr / huvec.mito.24hr / huvec.mitoint.24hr / huvec.nma.24hr / huvec.tc.24hr / huvec.mtl.18hr / huvec.tlps.18hr / huvec.tta.18hr / huvec.ttl.18hr: HUVECs; for huvec.mtl.18hr / huvec.tlps.18hr / huvec.tta.18hr / huvec.ttl.18hr / endo.mtl.18hr / endo.tlps.18hr / endo.tta.18hr / endo.ttl.18hr: tube formation; for cm.amp.avg.90min / cm.amp.cv.90min / cm.bpm.90min / cm.cam.90min / cm.decay.rise.90min / cm.mii.90min / cm.mito.90min / cm.spacing.cv.90min / cm.tc.90min / cm.amp.avg.24hrs / cm.amp.cv.24hrs / cm.bpm.24hrs / cm.cam.24hrs / cm.decay.rise.24hrs / cm.mii.24hrs / cm.mito.24hrs / cm.spacing.cv.24hrs / cm.tc.24hrs: iPSC cardiomyocytes; for endo.cyto.24hr / endo.mito.24hr / endo.mitoint.24hr / endo.nma.24hr / endo.tc.24hr / endo.mtl.18hr / endo.tlps.18hr / endo.tta.18hr / endo.ttl.18hr: iPSC endothelial cells
Summary of the method: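 Phenotypic readouts in iPSC-cardiomyocytes, iPSC-endothelial cells and HUVECs were normalised to 0.5% DMSO vehicle and fitted to a four-parameter logistic model. POD set at one SD cutoff of vehicle means, with 100 μM assigned when no response. PODs and physicochemical descriptors combined in ToxPi 2.0 scores.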

zebrafish = system: zebrafish; design: method as in Li et al. 2014; Teixidó et al. 2019; conditions: ref Li et al. 2014; Teixidó et al. 2019; cited from earlier work
[2] = system: porcine pulmonary artery–derived EC; design: method as in Hennig et al. 2002, 2005; Toborek et al. 1995; conditions: ref Hennig et al. 2002, 2005, Toborek et al. 1995; cited from earlier work
ryanodine receptor (RyR) = system: ryanodine receptor (RyR); design: method as in Wong et al. 2001, 1997; Wong and Pessah 1997; conditions: mechanism involving the ryanodine receptor; ref Wong et al. 2001, 1997; Wong and Pessah 1997; cited from earlier work

Row | Structure (SMILES) | huvec.cyto.24hr [1] | huvec.mito.24hr [1] | huvec.mitoint.24hr [1] | huvec.nma.24hr [1] | huvec.tc.24hr [1] | huvec.mtl.18hr [1] | huvec.tlps.18hr [1] | huvec.tta.18hr [1] | huvec.ttl.18hr [1] | cm.amp.avg.90min [1] | cm.amp.cv.90min [1] | cm.bpm.90min [1] | cm.cam.90min [1] | cm.decay.rise.90min [1] | cm.mii.90min [1] | cm.mito.90min [1] | cm.spacing.cv.90min [1] | cm.tc.90min [1] | cm.amp.avg.24hrs [1] | cm.amp.cv.24hrs [1] | also measured
1 | Clc1ccc(-c2cc(Cl)c(Cl)c(Cl)c2)cc1Cl [PCB 126, 3,3′,4,4′,5-pentachlorobiphenyl] | 0.3035 | 0 | 0 | 0 | 0.3035 | 0 | 0 | 0 | 0 | 0.3003 | 0 | 0.8534 | 0 | 1 | 0 | 0 | 0 | 0 | 0.3868 | 0.06292 | cm.bpm.24hrs [1]: 0.6773; cm.cam.24hrs [1]: 0.3565; cm.decay.rise.24hrs [1]: 1; cm.mii.24hrs [1]: 0; cm.mito.24hrs [1]: 0.557; cm.spacing.cv.24hrs [1]: 0.3424; cm.tc.24hrs [1]: 0.6297; endo.cyto.24hr [1]: 1; endo.mito.24hr [1]: 1; endo.mitoint.24hr [1]: 0.315; endo.nma.24hr [1]: 0; endo.tc.24hr [1]: 1; endo.mtl.18hr [1]: 0.1325; endo.tlps.18hr [1]: 0.4903; endo.tta.18hr [1]: 0.1238; endo.ttl.18hr [1]: 0.0871; cardiovascular toxicity in zebrafish (zebrafish): pericardial edema, cardiac looping defects, and circulatory failure; EC toxicity [2]: potent inducers of EC toxicity
2 | Clc1ccc(Cl)c(-c2c(Cl)ccc(Cl)c2Cl)c1 [PCB 95, 2,2′,3,5′,6-pentachlorobiphenyl] | 0.9485 | 1 | 0.5155 | 0.5037 | 0.9485 | 0.5568 | 0 | 0 | 0 | 0.3275 | 0.6707 | 0.7438 | 0.4148 | 0.1633 | 0 | 0.3775 | 0.2342 | 0.3895 | 0 | 0.2056 | cm.bpm.24hrs [1]: 1; cm.cam.24hrs [1]: 0.3236; cm.decay.rise.24hrs [1]: 0.2316; cm.mii.24hrs [1]: 0.3974; cm.mito.24hrs [1]: 0.5198; cm.spacing.cv.24hrs [1]: 0.1862; cm.tc.24hrs [1]: 0.5603; endo.cyto.24hr [1]: 0; endo.mito.24hr [1]: 0; endo.mitoint.24hr [1]: 0; endo.nma.24hr [1]: 0; endo.tc.24hr [1]: 0; endo.mtl.18hr [1]: 0.07537; endo.tlps.18hr [1]: 0.09893; endo.tta.18hr [1]: 0.06557; endo.ttl.18hr [1]: 0.054; cellular calcium release (ryanodine receptor (RyR)): sensitizing cellular calcium release
3 | Clc1cc(Cl)c(-c2cc(Cl)c(Cl)cc2Cl)cc1Cl [PCB 153, 2,2′,4,4′,5,5′-hexachlorobiphenyl] | 0.8978 | 0.5815 | 0.9487 | 0.5857 | 0.8978 | 0.3619 | 0.09107 | 0.4811 | 1 | 0.6441 | 0.2203 | 0.7602 | 0.6527 | 0.5479 | 0 | 0.6603 | 0.07557 | 0.6003 | 0 | 0.175 | cm.bpm.24hrs [1]: 0.4569; cm.cam.24hrs [1]: 0.2888; cm.decay.rise.24hrs [1]: 0.5277; cm.mii.24hrs [1]: 0.2429; cm.mito.24hrs [1]: 0.486; cm.spacing.cv.24hrs [1]: 0.2007; cm.tc.24hrs [1]: 0.5053; endo.cyto.24hr [1]: 0.2934; endo.mito.24hr [1]: 0.2934; endo.mitoint.24hr [1]: 1; endo.nma.24hr [1]: 0.08276; endo.tc.24hr [1]: 0.1249; endo.mtl.18hr [1]: 1; endo.tlps.18hr [1]: 0.6326; endo.tta.18hr [1]: 0.297; endo.ttl.18hr [1]: 0.4748; EC toxicity [2]: much less potent
4 | Oc1ccc(-c2ccc(Cl)cc2)cc1 [4'-OH-PCB 3] | 0.275 | 0.3852 | 0.4333 | 0.3408 | 0.275 | 0.9876 | 1 | 0.5814 | 0.4466 | 0.5917 | 0.3333 | 0.8225 | 0.8629 | 0.5699 | 0.6837 | 0.8821 | 0.08302 | 0.896 | 1 | 0.8417 | cm.bpm.24hrs [1]: 0.3262; cm.cam.24hrs [1]: 0.1519; cm.decay.rise.24hrs [1]: 0.2382; cm.mii.24hrs [1]: 0.4953; cm.mito.24hrs [1]: 0.213; cm.spacing.cv.24hrs [1]: 0.1936; cm.tc.24hrs [1]: 0.2201; endo.cyto.24hr [1]: 0.1551; endo.mito.24hr [1]: 0.1551; endo.mitoint.24hr [1]: 0; endo.nma.24hr [1]: 0; endo.tc.24hr [1]: 0.1152; endo.mtl.18hr [1]: 0.4612; endo.tlps.18hr [1]: 1; endo.tta.18hr [1]: 0.4055; endo.ttl.18hr [1]: 0.4146
5 | O=S(=O)(O)Oc1cc(-c2ccccc2)ccc1Cl [3-PCB 3 sulfate] | 0 | 0 | 0 | 0 | 0 | 0.4834 | 0.07929 | 0 | 0.09819 | 0.1033 | 0 | 0 | 0 | 0 | 0 | 0 | 0 | 0 | 0 | 0 | cm.bpm.24hrs [1]: 0; cm.cam.24hrs [1]: 0; cm.decay.rise.24hrs [1]: 0; cm.mii.24hrs [1]: 0.391; cm.mito.24hrs [1]: 0; cm.spacing.cv.24hrs [1]: 0; cm.tc.24hrs [1]: 0; endo.cyto.24hr [1]: 0; endo.mito.24hr [1]: 0; endo.mitoint.24hr [1]: 0; endo.nma.24hr [1]: 0; endo.tc.24hr [1]: 0; endo.mtl.18hr [1]: 0; endo.tlps.18hr [1]: 0.4317; endo.tta.18hr [1]: 0; endo.ttl.18hr [1]: 0
6 | O=S(=O)(O)Oc1ccc(-c2cccc(Cl)c2)cc1Cl [4-PCB 11 sulfate] | 0.07428 | 0.09457 | 0.4402 | 0.4481 | 0.07428 | 0.4352 | 0.2468 | 0 | 0 | 0.5438 | 0.207 | 0.3056 | 0 | 0.417 | 0 | 0 | 0.1011 | 0 | 0.2154 | 0.3772 | cm.bpm.24hrs [1]: 0.2853; cm.cam.24hrs [1]: 0.3798; cm.decay.rise.24hrs [1]: 0.3284; cm.mii.24hrs [1]: 0.1874; cm.mito.24hrs [1]: 0.571; cm.spacing.cv.24hrs [1]: 0.2596; cm.tc.24hrs [1]: 0.6332; endo.cyto.24hr [1]: 0; endo.mito.24hr [1]: 0; endo.mitoint.24hr [1]: 0; endo.nma.24hr [1]: 0; endo.tc.24hr [1]: 0; endo.mtl.18hr [1]: 0.1436; endo.tlps.18hr [1]: 0.3311; endo.tta.18hr [1]: 0.1419; endo.ttl.18hr [1]: 0.1256
7 | Oc1ccc(-c2cccc(Cl)c2)cc1Cl [4-OH-PCB 11] | 0.4438 | 0.5256 | 0.5773 | 0.5884 | 0.4438 | 0.5918 | 0.1971 | 0 | 0.4794 | 0.7012 | 0.353 | 0.1603 | 0.5301 | 0.5246 | 0.417 | 0.3722 | 0.09289 | 0.417 | 0 | 0.6637 | cm.bpm.24hrs [1]: 0.3605; cm.cam.24hrs [1]: 0.33; cm.decay.rise.24hrs [1]: 0.2928; cm.mii.24hrs [1]: 0.2219; cm.mito.24hrs [1]: 0.5458; cm.spacing.cv.24hrs [1]: 0.4379; cm.tc.24hrs [1]: 0.5639; endo.cyto.24hr [1]: 0.145; endo.mito.24hr [1]: 0.145; endo.mitoint.24hr [1]: 0.2813; endo.nma.24hr [1]: 0.4122; endo.tc.24hr [1]: 0.08397; endo.mtl.18hr [1]: 0.181; endo.tlps.18hr [1]: 0.1031; endo.tta.18hr [1]: 0.1681; endo.ttl.18hr [1]: 0.1683
